These are literature values, as cited in patent US20220280453A1, “Pharmaceutical Formulation” (Klaria Pharma Holding AB, priority 2019, published 2022).

Structures can show the parent of a compound that is named as a salt.

For one series the following is noted: ionized form.
For the molecule `CNC1(c2ccccc2Cl)CCCCC1=O` (racemic) [Ketamine, ketamine], the “pH at which most stable in solution” value is listed as “around 4”.

For the next series the following is noted: counterions of strong acids; Shannon effective ionic radii.
`Br` [Bromide (Br^−), Bromide]: the Ionic radius is 1.96 Å.

For the molecule `O=[N+]([O-])O` [Nitrate (NO3^−), Nitrate], the Ionic radius is given as 2.62 Å.

For the molecule `F` [Fluoride (F^−), Fluoride], the Ionic radius is on record as 1.33 Å.

As for `Cl` [Chloride (Cl^−), Chloride], the Ionic radius is given as 1.81 Å.

Consider `I` [Iodide (I^−), Iodide], for which the Ionic radius is listed as 2.20 Å.

Turning to `O=S(=O)(O)O` [Sulfate (SO4^2−), Sulfate], the Ionic radius is recorded as 2.89 Å.
